# Assay results taken from patent US20200405868A1, “GEL-FORMING POLYPEPTIDES” (priority 2018, published 2020).
# Where a SMILES comes first, the peptide text is derived from it. Bridges are numbered along the chain shown (N, C = ends). [ ]: non-standard residue; d: D form. The star is where a group is joined. Palmitoyl = CCCCCCCCCCCCCCCC(=O)*; AEEA = NCCOCCOCC(=O)O
# What was measured:
# [1] = Compound gel-forming ability in water (visual inspection, tube tapping assay, tilted tube assay); assay type: physicochemical;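 note: peptides mixed with de-ionized water at about 22-25 °C, judged after 20 min by eye plus tube tapping (10 taps, moves counted) and 90° tilt mobility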
# Method: Determination of Compound Gel-forming Ability in Water: To determine the solubility of polypeptides at room temperature, 1, 2, 3, 4, 5, 20, or 100 mg of a selected peptide is weighed and deposited into a clear plastic or glass vial and an aliquot of de-ionized water was then added to the vial. The procedure takes place in a room which is maintained at approximately 22-25° C. […] Insoluble peptides sample retained the particles or paste-like characteristics after 20 min of reaction. In addition to visual inspection, we performed a tube tapping assay and a tilted tube assay to differentiate the gelling status of peptide solutions.
# To determine the solubility of polypeptides at room temperature, 1, 2, 3, 4, 5, 20, or 100 mg of a selected peptide is weighed and deposited into a clear plastic vial and an aliquot of de-ionized water was then added to the vial. The procedure takes place in a room which is maintained at approximately 22-25° C. Polypeptide sample which is considered soluble dissolves instantly in water and stays as a clear solution without obvious macroscopic change in viscosity at 20 min after mixing with water. […] If macroscopic particles of peptides remain in the solution at 20 min after mixing with water, the peptide is considered insoluble or precipitated at the given concentration. In this case, the quality of peptides is further judged by two other criteria: (1) mobility following a tapping of the tube (tube tapping assay) and (2) mobility flowing tilting the tube by 900 (tilted tube assay). In the first assay, the tube is tapped with the finger for 10 times, and the number of times that the body of the solution changes position is recorded. An aqueous solution such as water will have a score of 9 or 10 in this assay; meaning that the body of the liquid moves every time when one taps the tube. […] Those with moderate viscosity form liquid gel that changes the conformation slowly when the container tube is tapped with a finger or tilted. […] If macroscopic change in the position of the body of gel was observed 5-9 time out of 10 separate tapping tests, the gel is considered a liquid gel. The high viscosity of a liquid gel is further confirmed using the tilted tube assay. […] If the liquid or gel body takes more than 15 seconds to flow to the bottom of the tilted tube, the resulting aqueous mass is considered a liquid gel.
# To allow systematic analysis of the gel-forming ability, the assay was first conducted at a peptide concentration of 11% w/w in aqueous solution. The peptides analyzed included functional regulators of cell surface receptors, enzymes, complement factors, antimicrobial peptides, immunomodulators, therapeutic peptides, cell-penetrating peptide, antigens, matrikines, and analogs of CGRP, adrenomedullin and adenomedullin 2 (or intermedin).
# [2] = molecular target: kappa opioid receptor (OPRK1) (Homo sapiens, UniProt P41145); experiment: OPRK1 cAMP assay (Discoverx), agonistic; assay type: cell-based
# kappa opioid receptor (OPRK1), sequence (P41145 whole entry): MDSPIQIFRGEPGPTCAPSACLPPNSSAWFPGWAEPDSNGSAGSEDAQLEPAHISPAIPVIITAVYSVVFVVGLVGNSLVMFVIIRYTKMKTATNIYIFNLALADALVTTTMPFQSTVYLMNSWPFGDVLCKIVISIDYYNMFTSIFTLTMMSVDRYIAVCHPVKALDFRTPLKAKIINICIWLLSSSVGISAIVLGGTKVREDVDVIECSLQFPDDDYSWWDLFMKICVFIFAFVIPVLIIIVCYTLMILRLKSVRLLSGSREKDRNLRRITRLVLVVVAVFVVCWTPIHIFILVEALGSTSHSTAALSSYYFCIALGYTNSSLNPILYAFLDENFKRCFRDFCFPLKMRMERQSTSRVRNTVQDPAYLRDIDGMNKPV
# Method: (§1) The agonistic activities toward MC1R, MC4R, CRHR2, PTHR1, and OPRK1 were assyed with an MC1R cAMP assay, an MC4R cAMP assay, a CRHR2 cAMP assay, a PTHR1 cAMP assay and an OPRK1 cAMP assay from Discoverx Inc. (Fremont, Calif.), respectively. The antagonistic activities toward bradykinin receptor 2 (BDKRB2) and GnRH receptor (GnRHR or LHRHR) were assayed with a BDKRB2 arrestin assay and a GnRHR calcium flux assay from Discoverx, respectively.
# (§2) For the analysis of Gs-coupled cAMP production, cAMP Hunter cell lines were expanded from freezer stocks, and cells were seeded in a total volume of 20 μL into white walled, 384-well microplates and incubated at 37 C for the appropriate time prior to testing. The cAMP modulation was determined using the DiscoverX HitHunter cAMP XS+ assay. For agonistic activity determination, cells were incubated with sample to induce response. Media was aspirated from cells and replaced with 15 μL 2:1 HBSS/10 mM Hepes: cAMP XS+ Ab reagent. […] The compound activity was analyzed using a CBIS data analysis suite (ChemInnovation, CA). For Gs-coupled agonistic assays, percentage activity is calculated using the following formula: % Activity=100%×(mean RLU of test sample−mean RLU of vehicle control)/(mean RLU of MAX control−mean RLU of vehicle control).
# [3] = molecular target: melanocortin receptor 4 (MC4R) (Homo sapiens, UniProt P32245); experiment: MC4R cAMP assay (Discoverx), agonistic; assay type: cell-based
# melanocortin receptor 4 (MC4R), sequence (P32245 whole entry): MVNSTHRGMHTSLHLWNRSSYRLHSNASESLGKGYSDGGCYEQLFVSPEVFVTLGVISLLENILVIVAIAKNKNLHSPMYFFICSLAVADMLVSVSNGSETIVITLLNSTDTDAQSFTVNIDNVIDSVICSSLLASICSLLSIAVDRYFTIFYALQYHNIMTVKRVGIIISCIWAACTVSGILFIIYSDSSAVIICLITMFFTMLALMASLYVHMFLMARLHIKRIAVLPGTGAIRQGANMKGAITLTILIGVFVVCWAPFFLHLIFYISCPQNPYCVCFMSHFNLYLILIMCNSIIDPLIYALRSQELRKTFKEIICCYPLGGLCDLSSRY
# Method: as §1, §2
SMILES,gel formation at 3% w/w ([1]; 3% w/w in water),gel formation at 6% w/w ([1]; 6% w/w in water),gel formation at 11% w/w ([1]; 11% w/w in water),"gel formation in aqueous solution, 6% ([1]; Table 3, 6% w/w)","gel formation in aqueous solution, 11% ([1]; Table 3, 11% w/w)","propensity to form gels, chimeric or mutated polypeptides, 6% ([1]; Table 5, 6% w/w)","propensity to form gels, chimeric or mutated polypeptides, 11% ([1]; Table 5, 11% w/w)",Max Activity % of positive control [2],Max Activity % of positive control [3]
"CCCCCCCCCCCCCCCC(=O)N[C@@H](CO)C(=O)N[C@@H](CO)C(=O)N1CCC[C@H]1C(=O)N[C@@H](Cc1c[nH]cn1)C(=O)N[C@@H](CO)C(=O)N[C@@H](Cc1ccc(O)cc1)C(=O)NCCOCCOCC(=O)N[C@H](Cc1ccccc1)C(=O)N[C@H](Cc1ccccc1)C(=O)N[C@@H](Cc1c[nH]c2ccccc12)C(=O)N[C@H](CCCNC(=N)N)C(=O)O [SEQ ID NO:214, Pal-SSPHSY-miniPEG-(D-Phe)-(D-Phe)-Trp-(D-Arg)] (Palmitoyl-SSPHSY[AEEA][dF][dF]W[dR]-OH; N-terminus and C-terminus assumed)",liquid gel,semisolid gel,semisolid gel,SS (SS for semisolid gel),SS (SS for semisolid gel),SS (An ability to form semisolid gel is represented by an SS),SS (An ability to form semisolid gel is represented by an SS),62 % of positive control,
"CCCCCCCCCCCCCCCC(=O)N[C@@H](Cc1c[nH]cn1)C(=O)N[C@@H](CO)C(=O)N[C@@H](Cc1ccc(O)cc1)C(=O)N[C@@H](CCCNC(=N)N)C(=O)N[C@H]1CSSC[C@@H](C(N)=O)NC(=O)[C@H](Cc2c[nH]c3ccccc23)NC(=O)[C@H](CCCNC(=N)N)NC(=O)[C@@H](Cc2ccccc2)NC(=O)[C@H](Cc2c[nH]cn2)NC(=O)[C@@H](C)NC1=O [SEQ ID NO:228, Pal-HSYRC-(D-Ala)-H-(D-Phe)-RWC-NH2] (Palmitoyl-HSYRC[dA]H[dF]RWC-NH2; disulfide 5-11 (inferred))",,,,,,,,,115 % of positive control
